# Experimental data: US20230278972A1, “SUBSTITUTED HALOALKYL SULFONANILIDE HERBICIDES” (FMC Corporation, priority 2020, published 2023)
# What was measured:
# Assay type in all cases: in vivo
# [1] = tested on: Oat, Wild (wild oat, Avena fatua); assay: Test A1 postemergence, Oat, Wild; conditions: Postemergence
# How it was run: (§1)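 Pre: seeds in loam/sand blend, directed soil spray. Post: potted plants, same soil, 2–10 cm, 1–2 leaf stage. Chemicals in non-phytotoxic solvent + surfactant for both.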
# [2] = tested on: wheat (Triticum aestivum); assay: Test A1 postemergence, wheat; conditions: Postemergence
# How it was run: (§2)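 Both timings started from seed in a loam-sand blend. Preemergence pots got a directed soil application immediately; postemergence pots were sprayed when seedlings had one or two leaves and stood 2–10 cm. Each compound was prepared in a non-phytotoxic solvent plus surfactant.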
# kochia (Bassia scoparia) [3] = assay: Test A1 preemergence, kochia
# How it was run: as §1
# [4] = tested on: horseweed (Erigeron canadensis); assay: Test A1 postemergence, horseweed; conditions: Postemergence
# How it was run: as §2
# [5] = tested on: wheat (Triticum aestivum); assay: Test A1 preemergence, wheat
# How it was run: as §1
# rice (Oryza sativa) = assay: Test B1 flooded paddy test, rice; conditions: 250 g ai/ha, Flood, applied to paddy water, 2-leaf stage, visually evaluated after 10 to 14 days
# Text: (§3) A dash (-) response means no test result.
# [6] = tested on: Foxtail, Giant (giant foxtail, Setaria faberi); assay: Test A1 postemergence, Foxtail, Giant; conditions: Postemergence
# How it was run: as §2
# [7] = tested on: blackgrass (Alopecurus myosuroides); assay: Test A1 postemergence, blackgrass; conditions: Postemergence, 0 to 100 scale (0 no effect, 100 complete control)
# How it was run: as §2
# [8] = tested on: Ryegrass, Italian (Italian ryegrass, Lolium multiflorum); assay: Test A1 postemergence, Ryegrass, Italian; conditions: Postemergence
# How it was run: as §2
# [9] = tested on: Pigweed, Palmer (palmer amaranth, palmer pigweed, Amaranthus palmeri); assay: Test A1 postemergence, Pigweed, Palmer; conditions: Postemergence
# How it was run: as §1
# kochia (Bassia scoparia) [10] = assay: Test A1 postemergence, kochia; conditions: Postemergence
# How it was run: as §2
# [11] = tested on: Foxtail, Giant (giant foxtail, Setaria faberi); assay: Test A1 preemergence, Foxtail, Giant
# How it was run: as §1
# [12] = tested on: ducksalad (Heteranthera limosa); assay: Test B1 flooded paddy test, ducksalad; conditions: 250 g ai/ha, Flood, applied to paddy water, 2-leaf stage, visually evaluated after 10 to 14 days
# Text: as §3
# [13] = tested on: goosegrass (Eleusine indica); assay: Test A1 preemergence, goosegrass
# How it was run: as §1
# soybean (Glycine max) [14] = assay: Test A1 postemergence, soybean; conditions: Postemergence
# How it was run: as §2
# [15] = tested on: blackgrass (Alopecurus myosuroides); assay: Test A1 preemergence, blackgrass
# How it was run: as §1
# [16] = tested on: ragweed (common ragweed, Ambrosia artemisiifolia); assay: Test A1 preemergence, ragweed
# How it was run: as §1
# soybean (Glycine max) [17] = assay: Test A1 preemergence, soybean
# How it was run: as §1
# [18] = tested on: ragweed (common ragweed, Ambrosia artemisiifolia); assay: Test A1 postemergence, ragweed; conditions: Postemergence
# How it was run: as §1
# [19] = tested on: Oat, Wild (wild oat, Avena fatua); assay: Test A1 preemergence, Oat, Wild
# How it was run: as §1
# [20] = tested on: galium (catchweed bedstraw, Galium aparine); assay: Test A1 postemergence, galium; conditions: Postemergence
# How it was run: as §2
# [21] = tested on: goosegrass (Eleusine indica); assay: Test A1 postemergence, goosegrass; conditions: Postemergence
# How it was run: as §2
# corn (Zea mays) [22] = assay: Test A1 postemergence, corn; conditions: Postemergence
# How it was run: as §1
# [23] = tested on: Pigweed, Palmer (palmer amaranth, palmer pigweed, Amaranthus palmeri); assay: Test A1 preemergence, Pigweed, Palmer
# How it was run: as §1
# [24] = tested on: Ryegrass, Italian (Italian ryegrass, Lolium multiflorum); assay: Test A1 preemergence, Ryegrass, Italian
# How it was run: as §1
# [25] = tested on: barnyardgrass (Echinochloa crus-galli); assay: Test B1 flooded paddy test, barnyardgrass; conditions: 250 g ai/ha, Flood, applied to paddy water, 2-leaf stage, visually evaluated after 10 to 14 days
# Text: as §3
# corn (Zea mays) [26] = assay: Test A1 preemergence, corn
# How it was run: as §1
# [27] = 31 g ai/ha, 0 to 100 scale (0 no effect, 100 complete control), 10 days
# [28] = 31 g ai/ha, 0 to 100 scale (0 no effect, 100 complete control)
# [29] = 125 g ai/ha, 0 to 100 scale, 0 no effect, 100 complete control
structure (smiles),measurement,setting,value
Cc1cc(C)c(C2=NOC(OCC(C)C)C2)cc1NS(=O)(=O)C(F)(F)F (stereo not drawn) [Compound 322],"Plant response rating, Oat, Wild",[1]; [27],0
same,"Plant response rating, Oat, Wild","[1]; 125 g ai/ha, 0 to 100 scale",0
same,"Plant response rating, Wheat",[2]; [27],0
same,"Plant response rating, Wheat","[2]; 125 g ai/ha, 0 to 100 scale",30
same,"Plant response rating, Kochia",kochia (Bassia scoparia) [3]; [28],0
same,"Plant response rating, Kochia",kochia (Bassia scoparia) [3]; [29],20
same,"Plant response rating, Horseweed",[4]; [27],0
same,"Plant response rating, Horseweed","[4]; 125 g ai/ha, 0 to 100 scale",40
same,"Plant response rating, Wheat",[5]; [28],0
same,"Plant response rating, Wheat",[5]; [29],50
same,"Plant response rating, Rice (0 to 100 scale, 0 is no effect, 100 is complete control)",rice (Oryza sativa),0
same,"Plant response rating, Foxtail, Giant",[6]; [27],0
same,"Plant response rating, Foxtail, Giant","[6]; 125 g ai/ha, 0 to 100 scale",40
same,"Plant response rating, Blackgrass","[7]; 31 g ai/ha, 10 days",20
same,"Plant response rating, Blackgrass",[7]; 125 g ai/ha,50
same,"Plant response rating, Ryegrass, Italian",[8]; [27],0
same,"Plant response rating, Ryegrass, Italian","[8]; 125 g ai/ha, 0 to 100 scale",40
same,"Plant response rating, Pigweed, Palmer",[9]; [27],0
same,"Plant response rating, Pigweed, Palmer","[9]; 125 g ai/ha, 0 to 100 scale",50
same,"Plant response rating, Kochia",kochia (Bassia scoparia) [10]; [27],10
same,"Plant response rating, Kochia","kochia (Bassia scoparia) [10]; 125 g ai/ha, 0 to 100 scale",30
same,"Plant response rating, Foxtail, Giant",[11]; [28],40
same,"Plant response rating, Foxtail, Giant",[11]; [29],80
same,"Plant response rating, Ducksalad (0 to 100 scale, 0 is no effect, 100 is complete control)",[12],0
same,"Plant response rating, Goosegrass",[13]; [28],0
same,"Plant response rating, Goosegrass",[13]; [29],90
same,"Plant response rating, Soybean",soybean (Glycine max) [14]; [27],20
same,"Plant response rating, Soybean","soybean (Glycine max) [14]; 125 g ai/ha, 0 to 100 scale",30
same,"Plant response rating, Blackgrass",[15]; [28],0
same,"Plant response rating, Blackgrass",[15]; [29],70
same,"Plant response rating, Ragweed",[16]; [28],20
same,"Plant response rating, Ragweed",[16]; [29],30
same,"Plant response rating, Soybean",soybean (Glycine max) [17]; [28],0
same,"Plant response rating, Soybean",soybean (Glycine max) [17]; [29],0
same,"Plant response rating, Ragweed",[18]; [27],70
same,"Plant response rating, Ragweed","[18]; 125 g ai/ha, 0 to 100 scale",80
same,"Plant response rating, Oat, Wild",[19]; [28],0
same,"Plant response rating, Oat, Wild",[19]; [29],30
same,"Plant response rating, Galium",[20]; [27],40
same,"Plant response rating, Galium","[20]; 125 g ai/ha, 0 to 100 scale",70
same,"Plant response rating, Goosegrass",[21]; [27],20
same,"Plant response rating, Goosegrass","[21]; 125 g ai/ha, 0 to 100 scale",50
same,"Plant response rating, Corn",corn (Zea mays) [22]; [27],0
same,"Plant response rating, Corn","corn (Zea mays) [22]; 125 g ai/ha, 0 to 100 scale",0
same,"Plant response rating, Pigweed, Palmer",[23]; [28],40
same,"Plant response rating, Pigweed, Palmer",[23]; [29],90
same,"Plant response rating, Ryegrass, Italian",[24]; [28],60
same,"Plant response rating, Ryegrass, Italian",[24]; [29],90
same,"Plant response rating, Barnyardgrass (0 to 100 scale, 0 is no effect, 100 is complete control)",[25],55
same,"Plant response rating, Corn",corn (Zea mays) [26]; [28],0
same,"Plant response rating, Corn",corn (Zea mays) [26]; [29],30
Cc1c(NS(=O)(=O)C(F)(F)F)cc(C(=O)N2CCC(F)CC2)c(C)c1C [Compound 358],"Plant response rating, Oat, Wild",[1]; [27],0
same,"Plant response rating, Oat, Wild","[1]; 125 g ai/ha, 0 to 100 scale",0
same,"Plant response rating, Wheat",[2]; [27],0
same,"Plant response rating, Wheat","[2]; 125 g ai/ha, 0 to 100 scale",0
same,"Plant response rating, Kochia",kochia (Bassia scoparia) [3]; [28],20
same,"Plant response rating, Kochia",kochia (Bassia scoparia) [3]; [29],30
same,"Plant response rating, Horseweed",[4]; [27],60
same,"Plant response rating, Horseweed","[4]; 125 g ai/ha, 0 to 100 scale",70
same,"Plant response rating, Wheat",[5]; [28],0
same,"Plant response rating, Wheat",[5]; [29],30
same,"Plant response rating, Rice (0 to 100 scale, 0 is no effect, 100 is complete control)",rice (Oryza sativa),10
same,"Plant response rating, Foxtail, Giant",[6]; [27],0
same,"Plant response rating, Foxtail, Giant","[6]; 125 g ai/ha, 0 to 100 scale",40
same,"Plant response rating, Blackgrass","[7]; 31 g ai/ha, 10 days",0
same,"Plant response rating, Blackgrass",[7]; 125 g ai/ha,0
same,"Plant response rating, Ryegrass, Italian",[8]; [27],20
same,"Plant response rating, Ryegrass, Italian","[8]; 125 g ai/ha, 0 to 100 scale",20
same,"Plant response rating, Pigweed, Palmer",[9]; [27],0
same,"Plant response rating, Pigweed, Palmer","[9]; 125 g ai/ha, 0 to 100 scale",40
same,"Plant response rating, Kochia",kochia (Bassia scoparia) [10]; [27],0
same,"Plant response rating, Kochia","kochia (Bassia scoparia) [10]; 125 g ai/ha, 0 to 100 scale",70
same,"Plant response rating, Foxtail, Giant",[11]; [28],80
same,"Plant response rating, Foxtail, Giant",[11]; [29],100
same,"Plant response rating, Ducksalad (0 to 100 scale, 0 is no effect, 100 is complete control)",[12],0
same,"Plant response rating, Goosegrass",[13]; [28],30
same,"Plant response rating, Goosegrass",[13]; [29],100
same,"Plant response rating, Soybean",soybean (Glycine max) [14]; [27],50
same,"Plant response rating, Soybean","soybean (Glycine max) [14]; 125 g ai/ha, 0 to 100 scale",70
same,"Plant response rating, Blackgrass",[15]; [28],0
same,"Plant response rating, Blackgrass",[15]; [29],10
same,"Plant response rating, Ragweed",[16]; [28],40
same,"Plant response rating, Ragweed",[16]; [29],80
same,"Plant response rating, Soybean",soybean (Glycine max) [17]; [28],50
same,"Plant response rating, Soybean",soybean (Glycine max) [17]; [29],70
same,"Plant response rating, Ragweed",[18]; [27],80
same,"Plant response rating, Ragweed","[18]; 125 g ai/ha, 0 to 100 scale",80
same,"Plant response rating, Oat, Wild",[19]; [28],0
same,"Plant response rating, Oat, Wild",[19]; [29],10
same,"Plant response rating, Galium",[20]; [27],70
same,"Plant response rating, Galium","[20]; 125 g ai/ha, 0 to 100 scale",100
same,"Plant response rating, Goosegrass",[21]; [27],0
same,"Plant response rating, Goosegrass","[21]; 125 g ai/ha, 0 to 100 scale",80
same,"Plant response rating, Corn",corn (Zea mays) [22]; [27],0
same,"Plant response rating, Corn","corn (Zea mays) [22]; 125 g ai/ha, 0 to 100 scale",0
same,"Plant response rating, Pigweed, Palmer",[23]; [28],90
same,"Plant response rating, Pigweed, Palmer",[23]; [29],90
same,"Plant response rating, Ryegrass, Italian",[24]; [28],0
same,"Plant response rating, Ryegrass, Italian",[24]; [29],30
same,"Plant response rating, Barnyardgrass (0 to 100 scale, 0 is no effect, 100 is complete control)",[25],50
same,"Plant response rating, Corn",corn (Zea mays) [26]; [28],0
same,"Plant response rating, Corn",corn (Zea mays) [26]; [29],50
